Experimental findings from patent publication US20040002526A1, “Phospholipase D inhibitors and uses thereof” (Cell Therapeutics, Inc., priority 2002, published 2004) are described below.

This test concerns the target T1, PLD (phospholipase D).
T1 construct: fused on or other part: N-terminal polyhistidine tag (pFastBac HTc) on either enzyme
Nature of the test: In vitro assay of PLD activity ([3H]-choline release from labelled PC). The format is biochemical, human. To be noted: PLD isoform not stated, read-out: IC50. As to the method:
Recombinant PLD1 and PLD2—Human PLD1 and PLD2 were isolated from Sf9 insect cells that had been infected with recombinant baculovirus vector, pFastBac™HTc vector (Life Technologies, Gaithersburg, Md.), containing PLD1 or PLD2 cDNAs.
PLD1 activity was assayed by measuring the generation of [^3H]-choline from [choline-methyl^3H](16:0, 16:0)PC.
The assay procedure for PLD2 was similar to that for PLD1, with the exception that arf1, PKC-α, and GTPγS were omitted from the reaction mixture. After addition of enzymes, the reactions were incubated for 1 hour at room temperature. Twenty microliters of 12% trichloroacetic acid (TCA) then were added to each sample, to stop the reaction and to precipitate the unreacted [choline-methyl^3H](16:0, 16:0)PC. Thereafter, the samples were passed through 0.65 μm Millipore 96 well filter plates to removed the excess [choline-methyl^3H](16:0, 16:0)PC. For each sample the filtrate (50 μl), which contained the [^3H]-choline released by PLD cleavage of PC, was analyzed using a TopCount™ Liquid Scintillation Counter, a product of Packard (Meriden, Conn.).

[1] abbreviates: Table 3, tricyclic thiazolidinones of Formula II.

The term IC50 denotes the midpoint of a concentration-inhibition curve.

Where two headings read alike, the source gives them in different places.

On to `CCOC(=O)C1=C(C)N=c2s/c(=C/c3ccc(-c4cccc(C(=O)O)c4)o3)c(=O)n2C1c1ccccc1OC` (stereo not drawn) [Compound 59, 2-[5-(3-Carboxy-phenyl)-furan-2-ylmethylene]-5-(2-methoxy-phenyl)-7-methyl-3-oxo-2,3-dihydro-5H-thiazolo[3,2-a]pyrimidine-6-carboxylic acid ethyl ester], for which, for the setting “Table 2, bicyclic thiazolidinones of Formula II”, the IC50 came out at 4.1 µM.
For the molecule `Cc1cc2nc3s/c(=C\c4ccc(-c5ccc(O)c(C(=O)O)c5)o4)c(=O)n3c2cc1C` [Compound 60, 5-[5-(6,7-Dimethyl-3-oxo-benzo[4,5]imidazo[2,1-b]thiazol-2-ylidenemethyl)-furan-2-yl]-2-hydroxy-benzoic acid], the IC50 under setting [1] was 3.6 µM.
Still for that read-out and setting: the figure for `Cc1cc2nc3s/c(=C/c4ccc(-c5cccc(C(=O)O)c5)o4)c(=O)n3c2cc1C` [Compound 61, 3-[5-(6,7-Dimethyl-3-oxo-benzo[4,5]imidazo[2,1-b]thiazol-2-ylidenemethyl)-furan-2-yl]-benzoic acid] is 3.4 µM.
